Experimental data reported in PubChem BioAssay AID258 (DTP/NCI, 2004).
Toxic doses and inconclusive results are not listed.

Test system: CD2F1 mice, L1210 leukemia sc, survival T/C
Assay: NCI In Vivo Anticancer Drug Screen. Data for tumor model L1210 Leukemia (subcutaneous) in CD2F1 (CDF1) mice
Conditions: endpoint: median survival time, higher = longer survival
Outline: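 Antitumor activity is scored in tumor-bearing mice by comparing survival or tumor size of treated animals against vehicle-treated controls, reported as T/C.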

## COC(=O)C1(F)C(=O)NC(=O)NC1OC (stereo not drawn)
dose: 50.0 mg/kg/injection, schedule: Q01DX009 (ip), vehicle: Klucel (hydroxypropylcellulose) (HPC)
  T/C: 110 % of control
dose: 100.0 mg/kg/injection, schedule: Q01DX009 (ip), vehicle: Klucel (hydroxypropylcellulose) (HPC)
  T/C: 120 % of control
dose: 120.0 mg/kg/injection, schedule: Q01DX009 (ip), vehicle: Klucel (hydroxypropylcellulose) (HPC)
  T/C: 163 % of control
dose: 200.0 mg/kg/injection, schedule: Q01DX009 (ip), vehicle: Klucel (hydroxypropylcellulose) (HPC)
  T/C: 159 % of control
dose: 333.33 mg/kg/injection, schedule: Q01DX009 (ip), vehicle: Klucel (hydroxypropylcellulose) (HPC)
  T/C: 120 % of control
dose: 400.0 mg/kg/injection, schedule: Q01DX009 (ip), vehicle: Klucel (hydroxypropylcellulose) (HPC)
  T/C: 105 % of control
dose: 555.56 mg/kg/injection, schedule: Q01DX009 (ip), vehicle: Klucel (hydroxypropylcellulose) (HPC)
  T/C: 110 % of control
dose: 800.0 mg/kg/injection, schedule: Q01DX009 (ip), vehicle: Klucel (hydroxypropylcellulose) (HPC)
  T/C: 98 % of control

## COc1cccc2c1C(=O)c1c(O)c3c(c(O)c1C2=O)CC(O)(C(=O)CO)CC3OC1CC(N)C(O)C(C)O1 (stereo not drawn)
dose: 2.9 mg/kg/injection, schedule: Q01DX009 (ip), vehicle: saline
  T/C: 104 % of control
dose: 5.8 mg/kg/injection, schedule: Q01DX009 (ip), vehicle: saline
  T/C: 105 % of control
dose: 11.7 mg/kg/injection, schedule: Q01DX009 (ip), vehicle: saline
  T/C: 106 % of control
dose: 23.4 mg/kg/injection, schedule: Q01DX009 (ip), vehicle: saline
  T/C: 115 % of control
dose: 46.8 mg/kg/injection, schedule: Q01DX009 (ip), vehicle: saline
  T/C: 111 % of control

## O=C(Nc1ccc(C2=NCCN2)cc1)c1cccc(C(=O)Nc2ccc(C3=NCCN3)cc2)c1
dose: 2.0 mg/kg/injection, schedule: Q01DX Z (iv), vehicle: water
  T/C: 100 % of control
dose: 3.0 mg/kg/injection, schedule: Q01DX Z (sc), vehicle: methylcellulose (MC)
  T/C: 100 % of control
dose: 4.0 mg/kg/injection, schedule: Q01DX Z (iv), vehicle: water
  T/C: 111 % of control
dose: 5.0 mg/kg/injection, schedule: Q01DX Z (sc), vehicle: methylcellulose (MC)
  T/C: 100 % of control
dose: 5.0 mg/kg/injection, schedule: Q01DX Z (sc), vehicle: water
  T/C: 111 % of control
dose: 8.0 mg/kg/injection, schedule: Q01DX Z (iv), vehicle: water
  T/C: 161 % of control
dose: 8.0 mg/kg/injection, schedule: Q01DX Z (sc), vehicle: water
  T/C: 183 % of control
dose: 8.4 mg/kg/injection, schedule: Q01DX Z (sc), vehicle: methylcellulose (MC)
  T/C: 111 % of control
dose: 8.4 mg/kg/injection, schedule: Q01DX Z (sc), vehicle: water
  T/C: 200 % of control
dose: 14.0 mg/kg/injection, schedule: Q01DX Z (sc), vehicle: water
  T/C: 250 % of control
dose: 16.0 mg/kg/injection, schedule: Q01DX Z (sc), vehicle: water
  T/C: 277 % of control
dose: 23.0 mg/kg/injection, schedule: Q01DX Z (sc), vehicle: methylcellulose (MC)
  T/C: 222 % of control
dose: 23.0 mg/kg/injection, schedule: Q01DX Z (sc), vehicle: water
  T/C: 283 % of control
dose: 32.0 mg/kg/injection, schedule: Q01DX Z (sc), vehicle: water
  T/C: 305 % of control
dose: 39.0 mg/kg/injection, schedule: Q01DX Z (sc), vehicle: methylcellulose (MC)
  T/C: 161 % of control
dose: 39.0 mg/kg/injection, schedule: Q01DX Z (sc), vehicle: water
  T/C: 266 % of control
dose: 64.0 mg/kg/injection, schedule: Q01DX Z (sc), vehicle: water
  T/C: 283 % of control
dose: 65.0 mg/kg/injection, schedule: Q01DX Z (sc), vehicle: methylcellulose (MC)
  T/C: 177 % of control
dose: 65.0 mg/kg/injection, schedule: Q01DX Z (sc), vehicle: water
  T/C: 266 % of control
dose: 128.0 mg/kg/injection, schedule: Q01DX Z (sc), vehicle: water
  T/C: 283 % of control
